Reference: ChEMBL document CHEMBL3407424, “Synthesis and evaluation of new α-methylene-γ-lactone carbamates with NO production inhibitory effects in lipopolysaccharide-induced RAW 264.7 macrophages” (Eur J Med Chem, 2015)

Legend:
[1] = Cytotoxicity against mouse RAW264.7 cells after 18 hrs by MTT assay; type: cell-based
RAW264.7 [2] = assay: Antiinflammatory activity against mouse RAW264.7 cells assessed as inhibition of LPS-induced NO production incubated for 30 mins by microplate reader analysis; type: functional, cell-based; details: RAW264.7, 0.5 h
RAW264.7 [3] = assay: Antiinflammatory activity against mouse RAW264.7 cells assessed as inhibition of LPS-induced NO production at 25 uM incubated for 30 mins by microplate reader analysis; type: functional; details: RAW264.7, 0.5 h

| Structure (SMILES) | CC50 at 18 h [1] | IC50 (RAW264.7 [2]) | inhibition at 25 µM (RAW264.7 [3]) |
| --- | --- | --- | --- |
| C=C1C(=O)OC[C@H]1CCOC(=O)Nc1ccc(C(=O)OCCCC)cc1 | 8.94 µM | 0.43 µM | > 94% |
| C=C1C(=O)OC[C@H]1CCOC(=O)Nc1ccc(F)cc1F | 24.5 µM | 0.33 µM | > 94% |
| C=C1C(=O)OC[C@@H]1CCOC(=O)Nc1ccccc1 | 22.3 µM | 0.78 µM | > 94% |
| C=C1C(=O)OC[C@@H]1CCOC(=O)Nc1ccc(Cl)cc1 | 10.3 µM | 1.07 µM | > 94% |
| C=C1C(=O)OC[C@H]1CCOC(=O)Nc1ccc(Cl)cc1 | 9.14 µM | 0.39 µM | > 94% |
| C=C1C(=O)OC[C@H]1CCOC(=O)Nc1ccc(I)cc1 | 12.8 µM | 0.49 µM | > 94% |
| C=C1C(=O)OC[C@@H]1CCOC(=O)Nc1ccc(CC)cc1 | 7.58 µM | 1.26 µM | > 94% |
| C=C1C(=O)OC[C@@H]1CCOC(=O)Nc1ccc(OC)cc1 | 11.9 µM | 1.09 µM | > 94% |
| C=C1C(=O)OC[C@@H]1CCOC(=O)Nc1cccc(Br)c1 | 17.7 µM | 0.84 µM | > 94% |
| C=C1C(=O)OC[C@@H]1CCOC(=O)Nc1ccc(I)cc1 | 12.5 µM | 0.79 µM | > 94% |
| C=C1C(=O)OC[C@@H]1CCOC(=O)Nc1c(C)cccc1C(C)C | > 50 µM | 5.98 µM | 39.5% |
| C=C1C(=O)OC[C@@H]1CCOC(=O)Nc1cc(C)cc(C)c1 | 13.6 µM | 1.24 µM | > 94% |
| C=C1C(=O)OC[C@H]1CCOC(=O)Nc1ccccc1 | 14.8 µM | 0.39 µM | > 94% |
| C=C1C(=O)OC[C@@H]1CCOC(=O)Nc1ccc(F)cc1F | 14.8 µM | 0.7 µM | > 94% |
| C=C1C(=O)OC[C@H]1CCOC(=O)Nc1ccc(CCCC)cc1 | 15.9 µM | 0.62 µM | > 94% |
| C=C1C(=O)OC[C@H]1CCOC(=O)Nc1ccc(OC)cc1 | 12.4 µM | 0.71 µM | > 94% |
| C=C1C(=O)OC[C@@H]1CCOC(=O)Nc1ccc(Br)cc1 | 19.8 µM | 0.72 µM | > 94% |

| Structure (SMILES) | CC50 at 18 h [1] | IC50 (RAW264.7 [2]) | inhibition at 25 µM (RAW264.7 [3]) |
| --- | --- | --- | --- |
| C=C1C(=O)OC[C@@H]1CCOC(=O)Nc1ccc(C(C)C)cc1 | 15.3 µM | 1.58 µM | > 94% |
| N=C(N)NN [PIMAGEDINE] |  | 7.29 µM |  |
| C=C1C(=O)OC[C@H]1CCOC(=O)Nc1ccc(Br)cc1 | 8.47 µM | 0.35 µM | > 94% |
| C=C1C(=O)OC[C@H]1CCOC(=O)Nc1ccc(CC)cc1 | 11.3 µM | 0.84 µM | > 94% |
| C=C1C(=O)OC[C@H]1CCOC(=O)Nc1cc(C)cc(C)c1 | 12.7 µM | 0.48 µM | > 94% |
| C=C1C(=O)OC[C@H]1CCOC(=O)Nc1ccccc1F | 17.4 µM | 0.35 µM | > 94% |
| C=C1C(=O)OC[C@H]1CCOC(=O)Nc1ccc(C)c(C)c1 | 18.2 µM | 1.09 µM | > 94% |
| C=C1C(=O)OC[C@H]1CCOC(=O)Nc1cc(C(F)(F)F)cc(C(F)(F)F)c1 | 13.9 µM | 0.96 µM | > 94% |
| C=C1C(=O)OC[C@@H]1CCOC(=O)Nc1ccccc1F | 24.2 µM | 0.69 µM | > 94% |
| C=C1C(=O)OC[C@H]1CCOC(=O)Nc1cccc(Br)c1 | 21.8 µM | 0.59 µM | > 94% |
| C=C1C(=O)OC[C@H]1CCOC(=O)Nc1c(C)cccc1C(C)C | 22.2 µM | 1.94 µM | 80.7% |
| C=C1C(=O)OC[C@@H]1CCOC(=O)Nc1ccc(CCCC)cc1 | 9.95 µM | 1.23 µM | > 94% |
| C=C1C(=O)OC[C@@H]1CCOC(=O)Nc1ccc(C)c(C)c1 | 13.7 µM | 1.45 µM | > 94% |
| C=C1C(=O)OC[C@H]1CCOC(=O)Nc1ccc(C(C)C)cc1 | 12.4 µM | 0.34 µM | > 94% |
| C=C1C(=O)OC[C@@H]1CCOC(=O)Nc1ccc(C(=O)OCCCC)cc1 | 12.7 µM | 0.86 µM | > 94% |
| C=C1C(=O)OC[C@@H]1CCOC(=O)Nc1cc(C(F)(F)F)cc(C(F)(F)F)c1 | 12.4 µM | 0.8 µM | > 94% |
